Results published in paper PMC4876393, “Structure of the Dictyostelium Myosin-II Heavy Chain Kinase A (MHCK-A) α-kinase domain apoenzyme reveals a novel autoinhibited conformation” (Scientific Reports, 2016).
Non-standard residues stand in square brackets, D forms with d. Residues, ends and D or L forms follow the SMILES beside them. pT = C[C@@H](OP(=O)(O)O)[C@H](N)C(=O)O

What was measured:
eEF2K = test system: eEF2K; parameters: method as in PMID 22115317; conditions: with and without Ca^2+-calmodulin; ref [40]; cited from earlier work
A-CAT-Δ809 = biological target: T1, A-CAT-Δ809 (Dictyostelium discoideum, UniProt P42527); test: Activation of truncated A-CAT-Δ809 kinase activity by phosphopeptides (Pi-pocket binding); type: biochemical; conditions: 22 °C, pH 7.0, mean and standard deviation of at least 3 separate experiments; for Kd: hyperbolic fit of A-CAT-Δ809 kinase activity vs peptide, assayed as described in ref [29], 2 mM MgCl2, 1 mM dithiothreitol, 20 mM TES; for Vmax: kinase activity as a percentage of wild-type A-CAT activity, hyperbolic fit
T1 construct: A-CAT encompasses the α-kinase domain and Thr825 autophosphorylation site of MHCK-A; made in house; host or cells: E. coli (printed for A-CAT and A-CAT-D663A)
T1 sequence (P42527 552-809 limits assumed): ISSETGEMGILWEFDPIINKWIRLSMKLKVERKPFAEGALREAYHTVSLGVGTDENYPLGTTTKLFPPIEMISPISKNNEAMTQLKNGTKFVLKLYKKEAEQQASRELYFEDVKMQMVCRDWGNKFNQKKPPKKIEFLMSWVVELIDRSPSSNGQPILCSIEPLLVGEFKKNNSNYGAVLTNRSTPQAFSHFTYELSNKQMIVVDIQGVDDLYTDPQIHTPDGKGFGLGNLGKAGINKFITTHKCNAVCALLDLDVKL
Experimental: (c) The kinase activity of A-CAT-Δ809 was assayed in the presence of peptides with the sequences QQG(p)TMVMPD (closed circles) or a QQG(p)TMSMPD (open circles). […] Kinase activities are reported as a percentage of wild-type A-CAT activity.
To test whether a hydrophobic residue in the P + 2 position favors binding to the Pi-pocket, experiments were carried out using a truncated A-CAT (A-CAT-Δ809) that lacks the activating Thr825 site of autophosphorylation and two phosphopeptides: one with a valine and one with a serine at the P + 2 position (QQG(p)TMVMPD and QQG(p)TMSMPD) (Fig. 3c).
Assays were carried out at 22 °C in a buffer containing 2 mM MgCl2, 1 mM dithiothreitol and 20 mM TES, pH 7.0. Kinase assays contained 20 μM myelin basic protein (MBP), 0.5–2 μM A-CAT and 200 μM [γ-^32P]ATP (specific activity 100 cpm/pmol). At each time point, 20 μl aliquots of the reaction mixture were spotted onto squares of Whatman P81 phosphocellulose paper, which were then washed 1% phosphoric acid, immersed in ScintiVerse Universal LS Mixture (Fisher Scientific), and counted using a Beckman LS 9000 scintillation counter. Assays to measure A-CAT-Δ809 activity in the presence of the QQG(p)TMVMPD and QQG(p)TMSMPD peptides were carried out as described[29]. […] Data from the initial linear portion of the time courses were used to calculate kinase and ATPase activity.

Y647A [1] = biological target: T2, Y647A (Dictyostelium discoideum, UniProt P42527, Y647A); test: Nucleotide binding assay with fluorescent mant-ADP on purified A-CAT, carried out as previously described (ref 51); at least 3 separate experiments.; conditions: read-out: mant-ADP Kd; SD, n = 3
T2 construct: gene mhkA; A-CAT: alpha-kinase domain and Thr825 autophosphorylation site of MHCK-A
T2 sequence (P42527 552-841 Y647A): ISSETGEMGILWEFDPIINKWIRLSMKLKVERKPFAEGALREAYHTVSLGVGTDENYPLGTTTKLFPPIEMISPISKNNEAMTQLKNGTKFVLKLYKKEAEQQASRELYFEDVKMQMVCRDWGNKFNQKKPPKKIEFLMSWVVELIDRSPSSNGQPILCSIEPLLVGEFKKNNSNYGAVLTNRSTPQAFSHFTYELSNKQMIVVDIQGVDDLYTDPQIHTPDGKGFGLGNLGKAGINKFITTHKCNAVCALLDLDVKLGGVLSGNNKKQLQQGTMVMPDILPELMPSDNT
Experimental: (§1) Assays were carried out at 22 °C in a buffer containing 2 mM MgCl2, 1 mM dithiothreitol and 20 mM TES, pH 7.0. Kinase assays contained 20 μM myelin basic protein (MBP), 0.5–2 μM A-CAT and 200 μM [γ-^32P]ATP (specific activity 100 cpm/pmol). At each time point, 20 μl aliquots of the reaction mixture were spotted onto squares of Whatman P81 phosphocellulose paper, which were then washed 1% phosphoric acid, immersed in ScintiVerse Universal LS Mixture (Fisher Scientific), and counted using a Beckman LS 9000 scintillation counter. Assays to measure A-CAT-Δ809 activity in the presence of the QQG(p)TMVMPD and QQG(p)TMSMPD peptides were carried out as described. ATPase activity was assayed using 250 μM ATP and release of inorganic phosphate (Pi) was measured using the Pi ColorLock Gold phosphate detection system (Innova Biosciences). Data from the initial linear portion of the time courses were used to calculate kinase and ATPase activity. Nucleotide binding assays using mant-ATP and mant-ADP were carried out as previously described. Results represent the mean and standard deviation of at least 3 separate experiments.

D663S [2] = biological target: T3, D663S (Dictyostelium discoideum, UniProt P42527, D663S); test: as above; conditions: read-out: mant-ADP Kd; SD, n = 3
T3 construct: gene mhkA; A-CAT: alpha-kinase domain and Thr825 autophosphorylation site of MHCK-A
T3 sequence (P42527 552-841 D663S): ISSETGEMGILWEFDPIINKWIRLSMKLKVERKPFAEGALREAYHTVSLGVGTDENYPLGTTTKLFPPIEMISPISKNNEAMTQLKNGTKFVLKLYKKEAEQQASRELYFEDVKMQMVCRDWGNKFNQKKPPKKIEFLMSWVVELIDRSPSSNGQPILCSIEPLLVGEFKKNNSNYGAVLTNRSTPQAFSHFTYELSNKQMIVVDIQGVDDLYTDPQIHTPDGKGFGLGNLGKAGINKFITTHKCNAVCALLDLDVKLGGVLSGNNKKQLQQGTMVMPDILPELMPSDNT
Experimental: as §1

A-CAT WT [3] = biological target: T4, A-CAT WT (Dictyostelium discoideum, UniProt P42527); test: as above; conditions: SD, n = 3
T4 construct: gene mhkA; A-CAT: alpha-kinase domain and Thr825 autophosphorylation site of MHCK-A; expressed in E. coli
T4 sequence (P42527 552-841): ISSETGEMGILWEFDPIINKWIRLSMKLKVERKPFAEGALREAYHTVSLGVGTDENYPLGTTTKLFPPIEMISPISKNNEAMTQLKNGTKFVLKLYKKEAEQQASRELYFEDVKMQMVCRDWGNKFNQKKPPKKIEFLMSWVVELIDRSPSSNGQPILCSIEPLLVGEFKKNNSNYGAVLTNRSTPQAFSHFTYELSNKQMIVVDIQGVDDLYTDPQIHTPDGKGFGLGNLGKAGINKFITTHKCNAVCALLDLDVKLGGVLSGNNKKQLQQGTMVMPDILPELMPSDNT
Experimental: as §1

D663A [4] = biological target: T5, D663A (Dictyostelium discoideum, UniProt P42527, D663A); test: as above; conditions: read-out: mant-ADP Kd; SD, n = 3
T5 construct: gene mhkA; A-CAT: alpha-kinase domain and Thr825 autophosphorylation site of MHCK-A; expressed in E. coli
T5 sequence (P42527 552-841 D663A): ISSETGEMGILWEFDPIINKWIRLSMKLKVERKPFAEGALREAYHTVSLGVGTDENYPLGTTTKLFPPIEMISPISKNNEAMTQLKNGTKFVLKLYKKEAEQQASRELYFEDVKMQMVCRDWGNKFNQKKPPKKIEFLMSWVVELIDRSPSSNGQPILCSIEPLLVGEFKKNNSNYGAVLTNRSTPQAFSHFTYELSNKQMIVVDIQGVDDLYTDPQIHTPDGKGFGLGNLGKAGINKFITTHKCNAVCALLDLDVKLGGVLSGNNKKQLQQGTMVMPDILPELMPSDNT
Experimental: as §1

A-CAT D663A = test: mant-nucleotide binding to A-CAT D663A; parameters: species or system Dictyostelium; conditions: for Kd: A-CAT D663A, 22 °C, 2 mM MgCl2, 1 mM dithiothreitol, 20 mM TES, pH 7.0, mean and standard deviation of at least 3 separate experiments; for effect of the D663A mutation on nucleotide binding: compared with wild-type A-CAT
Experimental: as §1

A-CAT Y647F = test: mant-nucleotide binding to A-CAT Y647F; parameters: species or system Dictyostelium; conditions: 22 °C, 2 mM MgCl2, 1 mM dithiothreitol, 20 mM TES, pH 7.0, mean and standard deviation of at least 3 separate experiments
Experimental: as §1

A-CAT Y647A = test: mant-nucleotide binding to A-CAT Y647A; parameters: species or system Dictyostelium; conditions: for Kd: A-CAT Y647A, 22 °C, 2 mM MgCl2, 1 mM dithiothreitol, 20 mM TES, pH 7.0, mean and standard deviation of at least 3 separate experiments; for effect of the Y647A mutation on nucleotide binding: compared with wild-type A-CAT
Experimental: as §1

A-CAT D663S = test: mant-nucleotide binding to A-CAT D663S; parameters: species or system Dictyostelium; conditions: for Kd: A-CAT D663S, 22 °C, 2 mM MgCl2, 1 mM dithiothreitol, 20 mM TES, pH 7.0, mean and standard deviation of at least 3 separate experiments; for effect of the D663S mutation on nucleotide binding: compared with wild-type A-CAT
Experimental: as §1

Y647A [5] = biological target: T2, Y647A; test: Nucleotide binding assay with fluorescent mant-ATP on purified A-CAT, carried out as previously described (ref 51); at least 3 separate experiments.; conditions: read-out: mant-ATP Kd; SD, n = 3
Experimental: as §1

D663S [6] = biological target: T3, D663S; test: as above; conditions: read-out: mant-ATP Kd; SD, n = 3
Experimental: as §1

Y647F = biological target: T6, Y647F (Dictyostelium discoideum, UniProt P42527, Y647F); test: as above; conditions: read-out: mant-ATP Kd; SD, n = 3
T6 construct: gene mhkA; A-CAT: alpha-kinase domain and Thr825 autophosphorylation site of MHCK-A
T6 sequence (P42527 552-841 Y647F): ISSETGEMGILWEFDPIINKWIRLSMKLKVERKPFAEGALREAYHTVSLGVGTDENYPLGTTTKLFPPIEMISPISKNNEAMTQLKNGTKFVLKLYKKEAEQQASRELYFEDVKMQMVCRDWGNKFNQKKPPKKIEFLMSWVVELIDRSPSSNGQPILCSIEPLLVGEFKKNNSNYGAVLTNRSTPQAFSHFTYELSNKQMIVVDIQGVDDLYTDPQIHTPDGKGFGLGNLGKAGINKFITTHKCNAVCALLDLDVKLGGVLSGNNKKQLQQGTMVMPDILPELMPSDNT
Experimental: as §1

A-CAT WT [7] = biological target: T4, A-CAT WT; test: as above; conditions: SD, n = 3
Experimental: as §1

D663A [8] = biological target: T5, D663A; test: as above; conditions: read-out: mant-ATP Kd; SD, n = 3
Experimental: as §1

Compound: Nc1ncnc2c1ncn2[C@@H]1O[C@H](COP(=O)(O)OP(=O)(O)OP(=O)(O)O)[C@@H](O)[C@H]1O [ATP]
- ATP binding to eEF2K (eEF2K): binds ATP in the presence and absence of Ca^2+-calmodulin
- UV cross-linking of ATP to eEF2K (eEF2K): can be UV cross-linked to ATP only in the presence of Ca^2+-calmodulin

Compound: CSCC[C@H](NC(=O)[C@@H](NC(=O)CNC(=O)[C@H](CCC(N)=O)NC(=O)[C@@H](N)CCC(N)=O)[C@@H](C)OP(=O)(O)O)C(=O)N[C@@H](CO)C(=O)N[C@@H](CCSC)C(=O)N1CCC[C@H]1C(=O)N[C@@H](CC(=O)O)C(=O)O [QQG(p)TMSMPD] (H-QQG[pT]MSMPD-OH)
- Kd (A-CAT-Δ809): 98 ± 12 µM
- Vmax (A-CAT-Δ809): 51 ± 3%

Compound: CSCC[C@H](NC(=O)[C@@H](NC(=O)CNC(=O)[C@H](CCC(N)=O)NC(=O)[C@@H](N)CCC(N)=O)[C@@H](C)OP(=O)(O)O)C(=O)N[C@H](C(=O)N[C@@H](CCSC)C(=O)N1CCC[C@H]1C(=O)N[C@@H](CC(=O)O)C(=O)O)C(C)C [QQG(p)TMVMPD] (H-QQG[pT]MVMPD-OH)
- Kd (A-CAT-Δ809): 38 ± 12 µM
- Vmax (A-CAT-Δ809): 61 ± 4%

Compound: CNc1ccccc1C(=O)O[C@H]1[C@@H](O)[C@H](n2cnc3c(N)ncnc32)O[C@@H]1COP(=O)(O)OP(=O)(O)O [mant-ADP, 2'/3'-O-(N-methylanthraniloyl)adenosine 5'-diphosphate]
- Kd (Y647A [1]): 30 ± 2 µM
- Kd (D663S [2]): 12 ± 2 µM
- Kd (A-CAT WT [3]): 15 ± 2 µM
- Kd (D663A [4]): 8 ± 2 µM

Compound: CNc1ccccc1C(=O)O[C@H]1[C@@H](O)[C@H](n2cnc3c(N)ncnc32)O[C@@H]1COP(=O)(O)OP(=O)(O)O [mant-ADP]
- Kd (A-CAT D663A): 8 ± 2 µM
- effect of the D663A mutation on nucleotide binding (A-CAT D663A): increased the affinity of A-CAT for nucleotide
- Kd (A-CAT Y647F): 15 ± 2 µM
- Kd (A-CAT Y647A): 30 ± 2 µM
- effect of the Y647A mutation on nucleotide binding (A-CAT Y647A): weakened the binding
- Kd (A-CAT D663S): 12 ± 2 µM
- effect of the D663S mutation on nucleotide binding (A-CAT D663S): increased the affinity of A-CAT for nucleotide

Compound: CNc1ccccc1C(=O)O[C@H]1[C@@H](O)[C@H](n2cnc3c(N)ncnc32)O[C@@H]1CO[P@@](=O)(O)O[P@](=O)(O)OP(=O)(O)O [mant-ATP, 2'/3'-O-(N-methylanthraniloyl)adenosine 5'-triphosphate]
- Kd (Y647A [5]): 10 ± 3 µM
- Kd (D663S [6]): 2.1 ± 0.5 µM
- Kd (Y647F): 4.3 ± 1 µM
- Kd (A-CAT WT [7]): 4.8 ± 0.6 µM
- Kd (D663A [8]): 3.2 ± 0.9 µM

Compound: CNc1ccccc1C(=O)O[C@H]1[C@@H](O)[C@H](n2cnc3c(N)ncnc32)O[C@@H]1COP(=O)(O)OP(=O)(O)OP(=O)(O)O [mant-ATP]
- Kd (A-CAT D663A): 3.2 ± 0.9 µM
- effect of the D663A mutation on nucleotide binding (A-CAT D663A): increased the affinity of A-CAT for nucleotide
- Kd (A-CAT Y647F): 4.3 ± 1 µM
- Kd (A-CAT Y647A): 10 ± 3 µM
- effect of the Y647A mutation on nucleotide binding (A-CAT Y647A): weakened the binding
- Kd (A-CAT D663S): 2.1 ± 0.5 µM
- effect of the D663S mutation on nucleotide binding (A-CAT D663S): increased the affinity of A-CAT for nucleotide
